ChEMBL document CHEMBL1154056, “Synthesis, characterization, antimicrobial and antitumor screening of some diorganotin(IV) complexes of 2-[(9H-Purin-6-ylimino)]-phenol” (Eur J Med Chem, 2009)
≈ marks a conversion by molar mass, not a printed value.

What was measured:
[1] = system: Salmonella typhi; experiment: Antibacterial activity against Salmonella typhi at 2 mg by agar well diffusion assay relative to imipenem; assay type: functional, Salmonella enterica subsp. enterica serovar Typhi
[2] = system: Pseudomonas aeruginosa; experiment: Antibacterial activity against Pseudomonas aeruginosa; assay type: functional
[3] = system: Aspergillus flavus; experiment: Antifungal activity against Aspergillus flavus assessed as growth inhibition at 50 mg after 72 hrs by dilution plate method; assay type: functional
[4] = system: Bacillus subtilis; experiment: Antibacterial activity against Bacillus subtilis; assay type: functional
[5] = system: Staphylococcus aureus; experiment: Antibacterial activity against Staphylococcus aureus; assay type: functional
[6] = system: Aspergillus flavus; experiment: Antifungal activity against Aspergillus flavus at 50 mg after 72 hrs by dilution plate method; assay type: functional; conditions: read-out: IZ
[7] = system: Bacillus subtilis; experiment: Antibacterial activity against Bacillus subtilis at 2 mg by agar well diffusion assay relative to imipenem; assay type: functional
[8] = system: Aspergillus niger; experiment: Antifungal activity against Aspergillus niger assessed as growth inhibition at 50 mg after 72 hrs dilution plate method; assay type: functional
[9] = system: Escherichia coli; experiment: Antibacterial activity against Escherichia coli; assay type: functional
[10] = system: Escherichia coli; experiment: Antibacterial activity against Escherichia coli at 2 mg by agar well diffusion assay relative to imipenem; assay type: functional
[11] = system: Salmonella typhi; experiment: Antibacterial activity against Salmonella typhi; assay type: functional, Salmonella enterica subsp. enterica serovar Typhi; conditions: Salmonella enterica
[12] = system: Fusarium oxysporum; experiment: Antifungal activity against Fusarium oxysporum assessed as growth inhibition at 50 mg after 72 hrs by dilution plate method; assay type: functional

OC1=CC=CC/C1=N\c1ncnc2[nH]cnc12
inhibition (INH) [1]: 10% | MIC [2]: 64 µg/mL (≈ 282 µM) | inhibition (INH) [3]: 10% | MIC [4]: 128 µg/mL (≈ 563 µM) | MIC [5]: 128 µg/mL (≈ 563 µM) | zone of inhibition at 50000 µg/disc [6]: 8 mm | inhibition (INH) [7]: 30% | inhibition (INH) [8]: 8% | MIC [9]: 64 µg/mL (≈ 282 µM) | inhibition (INH) [10]: 10% | MIC [11]: 64 µg/mL (≈ 282 µM) | inhibition (INH) [12]: 12%
